Results taken from patent US20030170310A1, “Tasteless, directly compressible, fast-dissolving complexes and pharmaceutical formulations thereof” (priority 2002, published 2003).

Experiment: PH of drug and complex
Format: physicochemical

PH: 2.25-2.75
Compound: CC(C)(C(=O)O)c1ccc(C(O)CCCN2CCC(C(O)(c3ccccc3)c3ccccc3)CC2)cc1.Cl (racemic) [Fexofenadine Hydrochloride, (±)-4-[1-hydroxy-4-[4-(hydroxydiphenylmethyl)-1-piperidinyl]-butyl]-α,α-dimethylbenzene acetic acid hydrochloride]
